# Numbers after ± are expanded uncertainties.
# Settings: 101.33 kPa, Liquid, Pycnometric method
structure (smiles),measurement,setting,value
"CC(=O)CC(C)=O [2,4-pentanedione]",mass density,298.15 K,972.1 ± 0.9 kg/m3
same,mass density,313.15 K,954 ± 0.9 kg/m3
same,mass density,328.15 K,939.3 ± 0.8 kg/m3
